Experimental data published in patent publication US9101566B2, “Fermentation product of cereal plant-derived material and immunomodulator” (KIRIN HOLDINGS KABUSHIKI KAISHA, priority 2009, dated 2015).

Key:
[1] = test system: C57BL/6 mDCs co-cultured with BALB/c CD4+CD62L+ T cells; assay: Cytokine profile of CD4+ T cells induced by DCs treated with 14-DHE, MLR (Example 11); assay type: cell-based, mouse; settings: 14-DHE 3 μM, day 4 supernatant, vs control mDC
Protocol: In a manner similar to that described in the above Examples, bone marrow cells were prepared from C57BL/6 mouse thigh bone, and then dendritic cells were induced using Flt-3L. 14-DHE was added at 3 μM simultaneously with the initiation of culture. Seven days later, Salmonella typhosa-derived LPS (Sigma Aldrich) was added at 5 ng/mL and then 24 hours later, cells were recovered. Subsequently, CD11c^+CD11b^+ was set as a gate for mDCs and then recovered cells were sorted. Next, from the BALB/c mouse spleen, CD4^+CD62L^+ T cells were isolated using the CD4^+CD62L^+ T cell isolation kit II (mouse) (Miltenyi Biotec), followed by mixed culture at a ratio of mDC:CD4^+T cell of 1:5. As a control, mDC prepared in the absence of 14-DHE was used. A culture supernatant on day 4 of culture was recovered, and then TNF-α, IFN-γ, IL-6, IL-10, and IL-17 were measured by ELISA. As ELISA kits, Mouse TNF-α Ready-SET-Go! (eBioscience), a BD OptEIA Mouse IFN-γ ELISA set (BD Life Science), Mouse IL-6 Ready-SET-Go! (eBioscience), a BD OptEIA Mouse IL-10 ELISA set (BD Life Science), and Mouse IL-17 DuoSet ELISA (R&D Systems) were separately used.

[2] = test system: dendritic cells induced from C57BL/6 mouse bone marrow cells with Flt-3L (mDCs, CD11c+CD11b+); assay: Regulatory DC-inducing activity of 14-dehydroergosterol (Example 9); assay type: cell-based
Protocol: Regulatory DC induction activity was evaluated for 14-dehydroergosterol (14-DHE) isolated and purified from wheat bran fermented with koji as described above and subjected to structural determination. As controls, ergosterol (Wako Pure Chemical Industries, Japan) and 9(11)-dehydroergosterol (9(11)-DHE) (Sigma-Aldrich Corp.), which are ergosterol-related substances, were used. Also, as conjugated linoleic acid (CLA) that was reported in connection with the inhibition of DC activation in the past, CLA (9Z, 11E) and CLA (10E, 12Z) (both, Cayman Chemical), and linoleic acid (Wako Pure Chemical Industries, Japan) were also subjected to activity determination (J. Immunol., 175(8): 4990-8, Oct. 15, 2005). As negative controls, a sample (none) to which no compound had been administered and a sample (ctrl) to which only LPS had been administered were also subjected to activity determination.
In a manner similar to Example 2, bone marrow cells were prepared from C57BL/6 mouse thigh bone, and then dendritic cells were induced using Flt-3L. Each test substance was added simultaneously with the initiation of culture at a concentration of 1 μM, 5 μM, or 10 μM. Seven days later, LPS (from Salmonella typhosa) (Sigma-Aldrich Corp.) was added at 5 ng/mL and then 24 hours later the cells were recovered. Subsequently, the cells were stained for the following cell markers and then subjected to flow cytometry analysis. All antibodies used were produced by Becton, Dickinson and Company. CD11c^+CD11b^+ was set as a gate for mDCs and then the expression levels of CD40, CD80, CD86, I-A/I-E, and ICOS-L were measured. Also, IL-12p40 and IL-10 in culture supernatants were measured by ELISA.

Solubility in solvent = assay type: physicochemical
[3] = test system: DCs induced from C57BL/6 mouse bone marrow cells; assay: Timing and duration of the DC-activation-suppressing effect of 14-DHE (Example 14); assay type: cell-based
Protocol: In a manner similar to those of the Examples above, C57BL/6 mouse bone marrow cells were prepared and then DCs were induced using Flt-3. The concentration of the added 14-DHE was 3 μM in all cases. The drug residence time in the culture system was controlled by medium exchange. Inflammation was induced using 5 ng/mL LPS, and then the expression level of CD86 was measured using a flow cytometer, so that the characteristics of regulatory DCs were determined. At this time, the cells that had been treated with LPS and without 14-DHE were used as control cells. The median fluorescence intensity (Median Fluorescence Intensity: MFI) of CD86 in the cells treated with 14-DHE was divided by MFI of untreated cells. The determined values indicate: 1 or more, no effect (score: −); 0.7-0.99, weak effect (score: +); 0.4-0.69, moderate effect (score: ++); and 0.4 or less, strong effect (score: +++).

[4] = test system: C57BL/6 mDCs co-cultured with OT-II mouse naive CD4+ T cells; assay: Cytokine profile of CD4+ T cells induced by DCs treated with 14-DHE, antigen-specific T cell reaction (Example 11); assay type: cell-based; settings: 0.1 μM OVA323-339 peptide, day 4, vs control mDCs
Protocol: mDCs were prepared by the method same as that in the MLR experiment. Naive CD4^+ T cells were prepared from OT-II mice (Charles River) in which TCR of CD4^+ T cells is specific for OVA323-339 epitope on the C57BL/6 background. Mixed culture was performed at a ratio of mDC:CD4^+ T cell of 1:5 in the presence of 0.1 μM OVA323-339 peptide. The culture supernatant was recovered on day 4 of culture, and then TNF-α, IFN-γ, IL-6, IL-10, and IL-17 were measured by ELISA.

[5] = test system: mDCs treated with 14-DHE co-cultured with OVA-specific naive CD4+ T cells; assay: Antigen-specific Treg-inducing capacity of DCs treated with 14-DHE (Example 10); assay type: cell-based, mouse
Protocol: Various DCs were prepared similarly to (A). Next, naive CD4^+ T cells were sorted from DO11.10 mice (Charles River) having OVA-specific TCR, DCs were mixed with the sorted cells at DC:CD4^+ T=1:10 (the number of cells), and then the cells were co-cultured. At this time, the medium was supplemented with 0.5 ng/mL TGF-β1 and 0.1 μM OVA323-339 peptide and then culture was performed for 5 days. Subsequently, Treg generation efficiency was determined as in (A) above.
In a manner similar to that in Example 5, the Treg-inducing activity of mDCs treated with 14-DHE was measured. Similar measurement was also performed using DCs not treated with 14-DHE as a control.

[6] = 1, 5 or 10 μM, LPS 5 ng/mL 24 h
[7] = 1, 5 or 10 μM, LPS 5 ng/mL, culture supernatant

In the case of `CC(C)[C@@H](C)/C=C/[C@@H](C)[C@H]1CC=C2C3=CC=C4C[C@@H](O)CC[C@]4(C)[C@H]3CC[C@@]21C` [Sample 14-DHE, ergosta-5,7,14,22-tetraen-3β-ol], the “IFN-γ production (ELISA)” value [1] is reported as “significant decreases”, the “IL-6 production (ELISA)” value [1] is reported as “significant decreases” and the “IL-10 production (ELISA)” value [1] is reported as “no statistically significant difference was observed”. The “IL-17 production (ELISA)” value [1] was “significant decreases”, the “TNF-α production (ELISA)” value [1] was “significant decreases” and the “expression level of CD40” value [2, 6] was “significantly decreased”. For the same compound, the “expression level of CD80” value [2, 6] was “significantly decreased”, the “expression level of CD86” value [2, 6] was “significantly decreased” and the “expression level of ICOS-L marker” value [2, 6] was “remained almost unchanged”. For the same compound, the “expression level of MHC class II molecule I-A/I-E” value [2, 6] was “significantly decreased”, the “expression of anti-inflammatory cytokine IL-10 (ELISA)” value [2, 7] was “slightly increased” and the “expression of inflammatory cytokine IL-12p40 (ELISA)” value [2, 7] was “drastically decreased”. The “effective concentration on DCs” value ([2]; DCs) was 1 µM, the “Solubility in solvent: chloroform” value (Solubility in solvent; chloroform) was “readily soluble” and the “Solubility in solvent: ethanol” value (Solubility in solvent; ethanol) was “hardly soluble”. The “Solubility in solvent: water” value (Solubility in solvent; water) was “insoluble”, the “duration of the effect” value ([3]; 14-DHE 3 μM) was 72 h and the “DC activation (CD86)-suppressing effect” value ([3]; 14-DHE 3 μM added for 5 or 6 days from initiation of differentiation) was “the degree of the effect significantly decreased”. For the same compound, the “DC activation (CD86)-suppressing effect” value ([3]; 14-DHE 3 μM added for 7 days starting from initiation of DC differentiation, LPS 5 ng/mL) was “strong effect”, the “DC activation (CD86)-suppressing effect” value ([3]; 14-DHE 3 μM addition begun on day 7 when DC differentiation was completed) was “strong effect” and the “DC activation (CD86)-suppressing effect” value ([3]; 14-DHE absent at the time of adding LPS) was “decrease in the effect was observed”. For the same compound, the “time within which the effect significantly decreased” value ([3]; addition begun on day 0 or on day 7) was ≤ 72 h, the “time required for 14-DHE to exhibit its effect” value ([3]; addition from initiation of DC differentiation) was ≥ 7 days and the “IFN-γ production (ELISA)” value [4] was “no statistically significant difference was observed”. The “IL-6 production (ELISA)” value [4] was “a significant decrease”, the “IL-10 production (ELISA)” value [4] was “significant increase” and the “IL-17 production (ELISA)” value [4] was “no statistically significant difference was observed”. For the same compound, the “TNF-α production (ELISA)” value [4] was “a significant decrease” and the “generation of Treg compared with the control” value [5] was “about 2 times”.
